These compounds were tested against S1R (Rattus norvegicus, UniProt Q9R0C9) (assay: S1R radioligand binding assay, [3H](+)-pentazocine, liver homogenates). Conditions: ratio of S2R Ki to S1R Ki.
Parameters: from tissue; host or cells: rat liver homogenate (male Sprague-Dawley); species or system male Sprague-Dawley rats
Method: (§1) The Ki-values were calculated with the program GraphPad Prism 7.0 (GraphPad Software, San Diego, California). The Ki-values are given as mean value ± SD from at least two independent experiments performed in duplicate.

Chain of S1R (Q9R0C9 whole entry): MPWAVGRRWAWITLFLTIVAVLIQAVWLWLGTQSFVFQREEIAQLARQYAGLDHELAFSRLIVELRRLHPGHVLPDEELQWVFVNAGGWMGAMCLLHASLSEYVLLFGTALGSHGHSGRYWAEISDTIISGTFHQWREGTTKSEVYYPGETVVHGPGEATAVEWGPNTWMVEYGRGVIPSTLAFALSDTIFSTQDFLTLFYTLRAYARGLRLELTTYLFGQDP

Row | Structure (SMILES) | KiS2R/KiS1R (preference for S1R over S2R)
1 | c1ccc(CCCN2CC3(CCN(CCc4ccccc4)CC3)C2)cc1 [4f, 7-Phenethyl-2-(3-phenylpropyl)-2,7-diazaspiro[3.5]nonane] | 1.2
2 | c1ccc(CN2CCCC3CN(c4ccccc4)CC32)cc1 (centres unmarked) [8a, 1-Benzyl-6-phenyloctahydro-1H-pyrrolo[3,4-b]pyridine] | 0.6
3 | c1ccc(CCN2CCCC3CN(c4ccccc4)CC32)cc1 (centres unmarked) [8b, 1-Phenethyl-6-phenyloctahydro-1H-pyrrolo[3,4-b]pyridine] | 0.6
4 | c1ccc(CCCN2CCCC3CN(c4ccccc4)CC32)cc1 (centres unmarked) [8e, 6-Phenyl-1-(3-phenylpropyl)octahydro-1H-pyrrolo[3,4-b]pyridine] | 0.8
5 | c1ccc(CCCN2CCCC3CN(CCc4ccccc4)CC32)cc1 (centres unmarked) [8g, 6-Phenethyl-1-(3-phenylpropyl)octahydro-1H-pyrrolo[3,4-b]pyridine] | 1.4

The remaining lines, values ahead:

Row | KiS2R/KiS1R (preference for S1R over S2R) | Structure (SMILES)
6 | 4.3 | c1ccc(CCCN2CC3(CCN(Cc4ccccc4)CC3)C2)cc1 [4e, 7-Benzyl-2-(3-phenylpropyl)-2,7-diazaspiro[3.5]nonane]
7 | 6.8 | O=C(c1ccccc1)N1CCC2(CC1)CN(CCc1ccccc1)C2 [5a, (2-Phenethyl-2,7-diazaspiro[3.5]nonan-7-yl)(phenyl)methanone]
8 | 0.07 | c1ccc(CCN2CC3CCCN(CCc4ccccc4)C3C2)cc1 (centres unmarked) [8d, 1,6-Diphenethyloctahydro-1H-pyrrolo[3,4-b]pyridine]

Same assay, conditions: read-out: Ki (nM) ± SD S1R

Row | Structure (SMILES) | Ki
9 | c1ccc(CCCN2CC3(CCN(CCc4ccccc4)CC3)C2)cc1 [4f, 7-Phenethyl-2-(3-phenylpropyl)-2,7-diazaspiro[3.5]nonane] | 126 ± 22 nM
10 | c1ccc(CN2CCCC3CN(c4ccccc4)CC32)cc1 (centres unmarked) [8a, 1-Benzyl-6-phenyloctahydro-1H-pyrrolo[3,4-b]pyridine] | 254 ± 32 nM
11 | c1ccc(CCN2CCCC3CN(c4ccccc4)CC32)cc1 (centres unmarked) [8b, 1-Phenethyl-6-phenyloctahydro-1H-pyrrolo[3,4-b]pyridine] | 505 ± 88 nM
12 | c1ccc(CCN2CCCC3CN(Cc4ccccc4)CC32)cc1 (centres unmarked) [8c, 6-Benzyl-1-phenethyloctahydro-1H-pyrrolo[3,4-b]pyridine] | 19 ± 2.6 nM
13 | c1ccc(CCCN2CCCC3CN(c4ccccc4)CC32)cc1 (centres unmarked) [8e, 6-Phenyl-1-(3-phenylpropyl)octahydro-1H-pyrrolo[3,4-b]pyridine] | 108 ± 31 nM
14 | c1ccc(CCCN2CCCC3CN(CCc4ccccc4)CC32)cc1 (centres unmarked) [8g, 6-Phenethyl-1-(3-phenylpropyl)octahydro-1H-pyrrolo[3,4-b]pyridine] | 710 ± 150 nM

Now from value to compound:

Row | Ki | Structure (SMILES)
15 | 7.2 ± 0.5 nM | c1ccc(CCCN2CC3(CCN(Cc4ccccc4)CC3)C2)cc1 [4e, 7-Benzyl-2-(3-phenylpropyl)-2,7-diazaspiro[3.5]nonane]
16 | 37 ± 9.6 nM | O=C(c1ccccc1)N1CCC2(CC1)CN(CCc1ccccc1)C2 [5a, (2-Phenethyl-2,7-diazaspiro[3.5]nonan-7-yl)(phenyl)methanone]
17 | 1730 ± 403 nM | c1ccc(CCN2CC3CCCN(CCc4ccccc4)C3C2)cc1 (centres unmarked) [8d, 1,6-Diphenethyloctahydro-1H-pyrrolo[3,4-b]pyridine]

The compounds below were run against T1, S2R (Rattus norvegicus, UniProt Q5U3Y7) (assay: S2R radioligand binding assay, [3H]DTG with (+)-pentazocine as S1R masking agent, liver homogenates). Conditions: read-out: Ki (nM) ± SD S2R.
T1 construct: from tissue; host or cells: rat liver homogenate (male Sprague-Dawley)
T1 sequence (Q5U3Y7 1-176): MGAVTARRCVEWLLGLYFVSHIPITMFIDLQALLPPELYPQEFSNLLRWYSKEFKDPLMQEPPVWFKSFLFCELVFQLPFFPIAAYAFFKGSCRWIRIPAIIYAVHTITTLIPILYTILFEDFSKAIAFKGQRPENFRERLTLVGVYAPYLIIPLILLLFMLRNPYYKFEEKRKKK
Parameters: species or system male Sprague-Dawley rats
Method: as §1

Row | Structure (SMILES) | Ki
18 | c1ccc(CCCN2CC3(CCN(CCc4ccccc4)CC3)C2)cc1 [4f, 7-Phenethyl-2-(3-phenylpropyl)-2,7-diazaspiro[3.5]nonane] | 149 ± 27 nM
19 | c1ccc(CN2CCCC3CN(c4ccccc4)CC32)cc1 (centres unmarked) [8a, 1-Benzyl-6-phenyloctahydro-1H-pyrrolo[3,4-b]pyridine] | 148 ± 29 nM
20 | c1ccc(CCN2CCCC3CN(c4ccccc4)CC32)cc1 (centres unmarked) [8b, 1-Phenethyl-6-phenyloctahydro-1H-pyrrolo[3,4-b]pyridine] | 279 ± 83 nM
21 | c1ccc(CCN2CCCC3CN(Cc4ccccc4)CC32)cc1 (centres unmarked) [8c, 6-Benzyl-1-phenethyloctahydro-1H-pyrrolo[3,4-b]pyridine] | 126 ± 19 nM
22 | c1ccc(CCCN2CCCC3CN(c4ccccc4)CC32)cc1 (centres unmarked) [8e, 6-Phenyl-1-(3-phenylpropyl)octahydro-1H-pyrrolo[3,4-b]pyridine] | 91 ± 5.8 nM
23 | c1ccc(CCCN2CCCC3CN(CCc4ccccc4)CC32)cc1 (centres unmarked) [8g, 6-Phenethyl-1-(3-phenylpropyl)octahydro-1H-pyrrolo[3,4-b]pyridine] | 1030 ± 200 nM

The remaining lines, values ahead:

Row | Ki | Structure (SMILES)
24 | 31 ± 5.4 nM | c1ccc(CCCN2CC3(CCN(Cc4ccccc4)CC3)C2)cc1 [4e, 7-Benzyl-2-(3-phenylpropyl)-2,7-diazaspiro[3.5]nonane]
25 | 255 ± 62 nM | O=C(c1ccccc1)N1CCC2(CC1)CN(CCc1ccccc1)C2 [5a, (2-Phenethyl-2,7-diazaspiro[3.5]nonan-7-yl)(phenyl)methanone]
26 | 114 ± 15 nM | c1ccc(CCN2CC3CCCN(CCc4ccccc4)C3C2)cc1 (centres unmarked) [8d, 1,6-Diphenethyloctahydro-1H-pyrrolo[3,4-b]pyridine]

Reference: publication PMC10197133, “Synthesis, Computational Insights, and Evaluation of Novel Sigma Receptors Ligands” (ACS Chemical Neuroscience, 2023)
